Measurements: article PMC6576746, “Rational discovery of dual-indication multi-target PDE/Kinase inhibitor for precision anti-cancer therapy using structural systems pharmacology” (PLoS Computational Biology, 2019)

Key:
Assay in all cases: biochemical
Parameters in all cases: DiscoverX KinomeScan competition binding assay across human kinases; per cent of control at 10 and 100 uM
CDK9 = CDK9 (Homo sapiens, UniProt P50750); conditions: competition binding, % of control; read-out: Percent Control (100 uM Levosimendan)
Summary of the method: (§1)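 Binding is expressed as %control, normalised between positive and negative control signals. The compound (levosimendan) was tested at 10 μM and 100 μM in the DiscoverX KinomeScan competition binding format against human kinases.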

CDC2L1 = target: T1, CDC2L1 (Homo sapiens, UniProt P21127); conditions: competition binding, % of control; read-out: Percent Control (100 uM Levosimendan)
T1 construct: gene CDK11B
Summary of the method: as §1

BLK = BLK (Homo sapiens, UniProt P51451); conditions: competition binding, % of control
BLK, sequence (P51451 whole entry): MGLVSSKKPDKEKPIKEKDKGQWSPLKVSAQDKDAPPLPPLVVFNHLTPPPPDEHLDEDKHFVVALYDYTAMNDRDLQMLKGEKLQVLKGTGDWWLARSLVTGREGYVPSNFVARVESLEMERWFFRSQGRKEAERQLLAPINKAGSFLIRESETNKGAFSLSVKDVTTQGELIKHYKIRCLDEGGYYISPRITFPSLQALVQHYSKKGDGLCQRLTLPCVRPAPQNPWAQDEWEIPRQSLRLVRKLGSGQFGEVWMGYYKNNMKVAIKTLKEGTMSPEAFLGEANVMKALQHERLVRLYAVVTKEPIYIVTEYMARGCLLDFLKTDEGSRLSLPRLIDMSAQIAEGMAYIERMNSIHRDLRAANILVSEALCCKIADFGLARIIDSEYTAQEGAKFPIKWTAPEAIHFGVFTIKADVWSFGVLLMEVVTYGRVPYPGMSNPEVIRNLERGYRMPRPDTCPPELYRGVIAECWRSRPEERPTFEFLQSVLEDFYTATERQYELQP
Summary of the method: as §1

p38-gamma = target: T2, p38-gamma (Homo sapiens, UniProt P53778); conditions: competition binding, % of control
T2 construct: gene MAPK12
T2 sequence (P53778 whole entry): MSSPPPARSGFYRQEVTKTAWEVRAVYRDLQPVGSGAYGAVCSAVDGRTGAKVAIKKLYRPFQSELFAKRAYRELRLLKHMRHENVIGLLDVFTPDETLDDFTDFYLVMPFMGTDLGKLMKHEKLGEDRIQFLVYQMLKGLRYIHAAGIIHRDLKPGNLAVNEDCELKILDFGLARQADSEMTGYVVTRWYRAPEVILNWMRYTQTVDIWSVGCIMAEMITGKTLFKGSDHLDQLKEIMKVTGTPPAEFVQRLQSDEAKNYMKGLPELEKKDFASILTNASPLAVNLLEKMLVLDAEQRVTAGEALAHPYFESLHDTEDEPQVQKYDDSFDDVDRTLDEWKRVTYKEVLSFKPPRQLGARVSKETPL
Summary of the method: as §1

CSK = CSK (Homo sapiens, UniProt P41240); conditions: competition binding, % of control; read-out: Percent Control (100 uM Levosimendan)
Summary of the method: as §1

ACVR1B = ACVR1B (Homo sapiens, UniProt P36896); conditions: competition binding, % of control; read-out: Percent Control (100 uM Levosimendan)
Summary of the method: as §1

MAP4K3 = MAP4K3 (Homo sapiens, UniProt Q8IVH8); conditions: competition binding, % of control; read-out: Percent Control (100 uM Levosimendan)
MAP4K3, sequence (Q8IVH8 whole entry): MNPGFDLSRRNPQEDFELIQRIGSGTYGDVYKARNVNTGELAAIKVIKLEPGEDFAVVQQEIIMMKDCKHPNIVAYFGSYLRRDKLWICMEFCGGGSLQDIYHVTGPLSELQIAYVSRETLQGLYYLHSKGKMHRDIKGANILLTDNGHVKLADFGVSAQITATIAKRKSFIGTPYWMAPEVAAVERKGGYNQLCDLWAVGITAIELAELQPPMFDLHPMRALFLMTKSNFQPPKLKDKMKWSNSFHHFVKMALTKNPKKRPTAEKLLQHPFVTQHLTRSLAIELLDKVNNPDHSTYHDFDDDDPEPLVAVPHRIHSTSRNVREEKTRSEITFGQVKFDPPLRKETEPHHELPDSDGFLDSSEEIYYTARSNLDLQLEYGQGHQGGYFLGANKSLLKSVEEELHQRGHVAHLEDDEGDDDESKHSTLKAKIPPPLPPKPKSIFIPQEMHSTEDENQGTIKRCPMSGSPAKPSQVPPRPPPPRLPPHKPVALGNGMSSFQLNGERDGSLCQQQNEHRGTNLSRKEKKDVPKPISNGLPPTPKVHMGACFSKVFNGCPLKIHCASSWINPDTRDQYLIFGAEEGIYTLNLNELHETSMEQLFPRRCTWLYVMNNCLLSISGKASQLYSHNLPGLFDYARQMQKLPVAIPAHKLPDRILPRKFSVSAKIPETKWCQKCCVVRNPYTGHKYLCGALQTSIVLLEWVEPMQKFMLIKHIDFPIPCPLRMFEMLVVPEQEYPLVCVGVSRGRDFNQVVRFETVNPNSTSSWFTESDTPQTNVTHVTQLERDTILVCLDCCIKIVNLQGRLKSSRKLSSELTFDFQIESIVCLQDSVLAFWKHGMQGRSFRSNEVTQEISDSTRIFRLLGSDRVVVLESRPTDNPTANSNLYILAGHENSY
Summary of the method: as §1

ERN1 = ERN1 (Homo sapiens, UniProt O75460); conditions: competition binding, % of control; read-out: Percent Control (100 uM Levosimendan)
Summary of the method: as §1

BRAF = BRAF (Homo sapiens, UniProt P15056); conditions: competition binding, % of control; read-out: Percent Control (100 uM Levosimendan)
Summary of the method: as §1

ZAK = target: T3, ZAK (Homo sapiens, UniProt Q9NYL2); conditions: competition binding, % of control
T3 construct: gene MAP3K20
T3 sequence (Q9NYL2 whole entry): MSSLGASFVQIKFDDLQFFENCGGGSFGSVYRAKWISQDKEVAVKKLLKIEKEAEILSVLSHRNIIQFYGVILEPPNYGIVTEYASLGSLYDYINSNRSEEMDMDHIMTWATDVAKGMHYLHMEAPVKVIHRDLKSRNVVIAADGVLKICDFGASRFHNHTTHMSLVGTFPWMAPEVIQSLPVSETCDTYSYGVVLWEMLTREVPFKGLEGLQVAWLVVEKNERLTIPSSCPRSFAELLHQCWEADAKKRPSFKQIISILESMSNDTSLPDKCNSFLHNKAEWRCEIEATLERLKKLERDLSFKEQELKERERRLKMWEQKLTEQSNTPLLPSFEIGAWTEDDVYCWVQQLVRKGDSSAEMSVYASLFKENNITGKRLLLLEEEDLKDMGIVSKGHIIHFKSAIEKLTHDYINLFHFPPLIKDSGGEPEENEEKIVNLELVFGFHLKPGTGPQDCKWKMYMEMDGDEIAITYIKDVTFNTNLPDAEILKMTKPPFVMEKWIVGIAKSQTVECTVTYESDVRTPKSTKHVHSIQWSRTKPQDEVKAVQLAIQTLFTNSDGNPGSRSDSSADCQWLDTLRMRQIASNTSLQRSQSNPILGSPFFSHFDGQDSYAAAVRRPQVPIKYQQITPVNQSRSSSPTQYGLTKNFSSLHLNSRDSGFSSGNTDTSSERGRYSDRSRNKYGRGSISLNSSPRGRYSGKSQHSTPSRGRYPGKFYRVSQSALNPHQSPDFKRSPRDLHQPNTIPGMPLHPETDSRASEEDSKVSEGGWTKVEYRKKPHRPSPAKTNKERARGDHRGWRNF
Summary of the method: as §1

CLK3 = CLK3 (Homo sapiens, UniProt P49761); conditions: competition binding, % of control; read-out: Percent Control (100 uM Levosimendan)
CLK3, sequence (P49761 whole entry): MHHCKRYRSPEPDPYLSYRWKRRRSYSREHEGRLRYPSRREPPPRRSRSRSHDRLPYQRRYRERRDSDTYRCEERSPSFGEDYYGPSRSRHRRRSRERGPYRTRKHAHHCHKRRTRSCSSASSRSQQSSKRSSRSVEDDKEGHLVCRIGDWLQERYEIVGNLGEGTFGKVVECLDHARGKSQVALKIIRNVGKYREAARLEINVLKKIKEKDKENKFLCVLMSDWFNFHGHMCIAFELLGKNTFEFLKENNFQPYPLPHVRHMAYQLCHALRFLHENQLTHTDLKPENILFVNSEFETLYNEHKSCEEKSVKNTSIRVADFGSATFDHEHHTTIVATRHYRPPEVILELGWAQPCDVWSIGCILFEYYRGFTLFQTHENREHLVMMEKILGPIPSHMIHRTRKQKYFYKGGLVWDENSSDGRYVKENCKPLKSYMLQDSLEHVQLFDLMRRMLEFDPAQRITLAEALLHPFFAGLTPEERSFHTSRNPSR
Summary of the method: as §1

BUB1 = BUB1 (Homo sapiens, UniProt O43683); conditions: competition binding, % of control
BUB1, sequence (O43683 whole entry): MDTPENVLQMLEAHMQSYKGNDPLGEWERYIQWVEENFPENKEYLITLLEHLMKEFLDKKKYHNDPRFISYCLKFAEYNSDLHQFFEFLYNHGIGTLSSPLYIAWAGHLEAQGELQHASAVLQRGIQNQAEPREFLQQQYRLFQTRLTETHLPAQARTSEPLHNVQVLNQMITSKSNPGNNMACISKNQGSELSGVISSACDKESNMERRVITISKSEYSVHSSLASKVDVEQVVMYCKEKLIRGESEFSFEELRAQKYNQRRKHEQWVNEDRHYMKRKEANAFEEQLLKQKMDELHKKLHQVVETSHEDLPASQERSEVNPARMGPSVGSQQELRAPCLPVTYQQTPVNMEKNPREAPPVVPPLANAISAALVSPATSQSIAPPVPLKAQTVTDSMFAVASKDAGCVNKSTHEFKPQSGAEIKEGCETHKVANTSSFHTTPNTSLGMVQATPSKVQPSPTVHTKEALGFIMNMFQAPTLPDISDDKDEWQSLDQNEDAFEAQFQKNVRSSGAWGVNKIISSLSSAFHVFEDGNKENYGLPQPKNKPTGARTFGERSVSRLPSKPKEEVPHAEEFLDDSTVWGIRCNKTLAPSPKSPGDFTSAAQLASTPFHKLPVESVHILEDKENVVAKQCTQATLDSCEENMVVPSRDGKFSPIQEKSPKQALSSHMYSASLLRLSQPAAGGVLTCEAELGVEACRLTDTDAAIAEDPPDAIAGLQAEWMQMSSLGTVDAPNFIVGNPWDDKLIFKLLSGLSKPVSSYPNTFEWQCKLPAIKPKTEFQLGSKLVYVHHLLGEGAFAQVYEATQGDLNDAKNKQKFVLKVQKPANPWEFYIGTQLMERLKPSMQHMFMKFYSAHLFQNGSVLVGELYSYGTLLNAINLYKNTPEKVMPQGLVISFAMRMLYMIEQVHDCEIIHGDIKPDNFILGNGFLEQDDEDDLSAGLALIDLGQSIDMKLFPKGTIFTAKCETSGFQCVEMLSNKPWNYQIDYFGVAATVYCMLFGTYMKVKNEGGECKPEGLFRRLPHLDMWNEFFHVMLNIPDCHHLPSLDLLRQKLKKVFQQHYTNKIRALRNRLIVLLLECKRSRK
Summary of the method: as §1

[1] = target: T4, RSK3(Kin.Dom.2-C-terminal) (Homo sapiens, UniProt Q15349); conditions: competition binding, % of control; read-out: Percent Control (100 uM Levosimendan)
T4 construct: gene RPS6KA2; Kin.Dom.2-C-terminal
Summary of the method: as §1

MET(Y1235D) = MET(Y1235D) (Homo sapiens, UniProt P08581, Y1235D); conditions: competition binding, % of control; read-out: Percent Control (100 uM Levosimendan)
Summary of the method: as §1

DDR1 = DDR1 (Homo sapiens, UniProt Q08345); conditions: competition binding, % of control; read-out: Percent Control (100 uM Levosimendan)
DDR1, sequence (Q08345 whole entry): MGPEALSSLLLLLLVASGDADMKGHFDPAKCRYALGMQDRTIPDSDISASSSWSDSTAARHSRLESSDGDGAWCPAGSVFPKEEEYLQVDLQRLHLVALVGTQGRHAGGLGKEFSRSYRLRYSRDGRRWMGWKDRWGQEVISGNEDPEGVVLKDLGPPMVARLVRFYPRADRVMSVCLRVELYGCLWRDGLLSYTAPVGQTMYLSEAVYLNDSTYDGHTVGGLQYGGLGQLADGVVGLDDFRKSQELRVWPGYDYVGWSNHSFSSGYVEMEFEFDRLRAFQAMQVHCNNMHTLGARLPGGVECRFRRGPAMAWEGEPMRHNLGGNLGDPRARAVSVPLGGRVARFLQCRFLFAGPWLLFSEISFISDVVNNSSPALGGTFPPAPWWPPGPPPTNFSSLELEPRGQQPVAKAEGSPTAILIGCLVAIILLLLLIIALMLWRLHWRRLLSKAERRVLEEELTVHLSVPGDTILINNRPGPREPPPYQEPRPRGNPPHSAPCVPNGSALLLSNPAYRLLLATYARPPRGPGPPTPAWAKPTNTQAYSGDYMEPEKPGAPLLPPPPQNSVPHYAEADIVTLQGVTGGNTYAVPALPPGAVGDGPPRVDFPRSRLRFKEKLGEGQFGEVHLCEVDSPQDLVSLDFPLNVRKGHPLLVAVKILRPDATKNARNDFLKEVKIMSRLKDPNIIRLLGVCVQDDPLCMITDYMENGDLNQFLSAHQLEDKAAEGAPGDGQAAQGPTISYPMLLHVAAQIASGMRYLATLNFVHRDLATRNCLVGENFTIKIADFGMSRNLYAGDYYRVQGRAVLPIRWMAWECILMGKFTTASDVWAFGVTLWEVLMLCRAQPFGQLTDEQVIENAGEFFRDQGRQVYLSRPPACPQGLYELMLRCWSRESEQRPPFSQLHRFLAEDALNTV
Summary of the method: as §1

EPHA8 = EPHA8 (Homo sapiens, UniProt P29322); conditions: competition binding, % of control; read-out: Percent Control (100 uM Levosimendan)
Summary of the method: as §1

AMPK-alpha2 = target: T5, AMPK-alpha2 (Homo sapiens, UniProt P54646); conditions: competition binding, % of control; read-out: Percent Control (100 uM Levosimendan)
T5 construct: gene PRKAA2
Summary of the method: as §1

ERBB3 = ERBB3 (Homo sapiens, UniProt P21860); conditions: competition binding, % of control; read-out: Percent Control (100 uM Levosimendan)
Summary of the method: as §1

[2] = read-out: Percent Control (10 uM Levosimendan)
[3] = read-out: Percent Control (100 uM Levosimendan)

remaining binding at 100 µM (CDK9): 100%
remaining binding at 100 µM (CDC2L1): 100%
remaining binding at 10 µM (BLK; [2]): 79%
remaining binding at 100 µM (BLK; [3]): 50%
remaining binding at 10 µM (p38-gamma; [2]): 92%
remaining binding at 100 µM (p38-gamma; [3]): 52%
remaining binding at 100 µM (CSK): 76%
remaining binding at 100 µM (ACVR1B): 61%
remaining binding at 100 µM (MAP4K3): 95%
remaining binding at 100 µM (ERN1): 79%
remaining binding at 100 µM (BRAF): 81%
remaining binding at 10 µM (ZAK; [2]): 100%
remaining binding at 100 µM (ZAK; [3]): 52%
remaining binding at 100 µM (CLK3): 68%
remaining binding at 10 µM (BUB1; [2]): 94%
remaining binding at 100 µM (BUB1; [3]): 53%
remaining binding at 100 µM [1]: 100%
remaining binding at 100 µM (MET(Y1235D)): 57%
remaining binding at 100 µM (DDR1): 84%
remaining binding at 100 µM (EPHA8): 91%
remaining binding at 100 µM (AMPK-alpha2): 83%
remaining binding at 100 µM (ERBB3): 75%
Structure (SMILES): C[C@@H]1CC(=O)NN=C1c1ccc(NN=C(C#N)C#N)cc1 [levosimendan]
